# Legend:
# Assay type in all cases: biochemical
# Hna [1] = biological target: T1, Hna (Sinorhizobium meliloti, UniProt Q92XN4); assay: ssDNA cleavage time courses by capillary electrophoresis, […] ATP; settings: 10 mM MgCl2; pH 7.5; 37 °C; nuclease read-out, ATP binds helicase domain
# T1 construct: gene SMa2245; full length, 845 residues; recombinant E. coli (codon-optimised); N-terminal 6xHis-MBP-TEV tags cleaved with TEV; monomer, ATP-stabilised homodimer
# Hna [2] = biological target: T1, Hna; assay: malachite green phosphate release assay; settings: 20 µM ATP; 10 nM ssDNA; 10 mM MgCl2; pH 7.5; 37 °C
# Hna [3] = biological target: T2, Hna (Sinorhizobium meliloti, UniProt Q92XN4, P712A/D713A/E727A); assay: malachite green phosphate release assay; settings: ssDNA present; Mg2+; pH 7.5; 37 °C
# T2 construct: gene SMa2245; full length, 845 residues; recombinant E. coli (codon-optimised); N-terminal 6xHis-MBP-TEV tags cleaved with TEV; monomer, ATP-stabilised homodimer
# T2 sequence (Q92XN4 entry or part of it P712A/D713A/E727A): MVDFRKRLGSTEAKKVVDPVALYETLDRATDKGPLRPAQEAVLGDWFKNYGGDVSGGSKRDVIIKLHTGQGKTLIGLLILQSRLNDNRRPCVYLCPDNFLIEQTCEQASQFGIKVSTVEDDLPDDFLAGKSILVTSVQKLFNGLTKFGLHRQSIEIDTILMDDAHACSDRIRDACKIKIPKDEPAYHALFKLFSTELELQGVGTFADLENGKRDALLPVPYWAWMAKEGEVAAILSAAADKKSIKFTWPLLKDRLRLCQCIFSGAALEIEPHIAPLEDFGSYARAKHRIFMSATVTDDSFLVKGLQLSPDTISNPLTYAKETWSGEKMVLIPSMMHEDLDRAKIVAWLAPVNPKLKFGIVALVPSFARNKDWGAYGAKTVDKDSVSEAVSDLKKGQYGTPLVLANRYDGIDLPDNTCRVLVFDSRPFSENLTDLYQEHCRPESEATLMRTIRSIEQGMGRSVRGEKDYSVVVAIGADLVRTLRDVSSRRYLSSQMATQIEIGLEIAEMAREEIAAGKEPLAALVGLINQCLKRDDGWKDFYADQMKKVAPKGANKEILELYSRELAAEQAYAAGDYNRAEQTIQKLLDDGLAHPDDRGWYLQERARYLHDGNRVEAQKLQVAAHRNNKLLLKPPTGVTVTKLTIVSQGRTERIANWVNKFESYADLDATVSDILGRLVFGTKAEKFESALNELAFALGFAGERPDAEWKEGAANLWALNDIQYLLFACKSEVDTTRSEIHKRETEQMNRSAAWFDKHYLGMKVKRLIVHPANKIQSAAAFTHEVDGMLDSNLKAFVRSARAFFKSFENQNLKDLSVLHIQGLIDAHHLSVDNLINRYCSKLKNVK
# T1 sequence (Q92XN4 entry or part of it): as the sequence (Q92XN4 entry or part of it P712A/D713A/E727A) above, with A712P, A713D, A727E counted along it
smiles,measurement,setting,value
Nc1ncnc2c1ncn2[C@@H]1O[C@H](COP(=O)(O)OP(=O)(O)OP(=O)(O)O)[C@@H](O)[C@H]1O [ATP],inhibition of ssDNA cleavage,Hna [1],significant reduction in ssDNA cleavage across all concentrations of ATP tested
same,malachite green phosphate release assay,Hna [2],Hna possesses minimal innate ATPase activity that is significantly enhanced by the inclusion of ssDNA
same,ATPase activity (significant increase),Hna [3],significant increase in ATP hydrolysis by PDE Hna

# — publication PMC13381803, “Phage-encoded factor stimulates DNA degradation by the Hna anti-phage defense system” (Nature Communications, 2026)
